{"source": "patent US11285208B2", "about": "“Therapeutic agents for pancreatic cancer” (NATIONAL CANCER CENTER, priority 2010, dated 2022)", "key": {"[1]": {"system": "progressive/metastatic pancreatic cancer", "assay": "Clinical performance of gemcitabine hydrochloride monotherapy in progressive/metastatic pancreatic cancer patients", "assay_type": "in vivo, human", "description": "Thus, the tumor reducing effect and ascites eliminating effect observed in one case of combination therapy were not observed with monotherapy."}, "pancreatic cancer": {"system": "pancreatic cancer", "conditions": "first-line therapy, foreign phase III clinical trials; cited from earlier work"}}, "note": "Where a name gives a salt, the structure may show the parent alone.", "data": [{"smiles": "Nc1ccn([C@@H]2O[C@H](CO)[C@@H](O)C2(F)F)c(=O)n1", "note": "[gemcitabine hydrochloride]", "values": [{"measurement": "Average change in tumor size (increase)", "setting": "[1]; 3 months after the start of monotherapy, 25 analyzable cases, 95% confidence interval 4.6-67.4%", "result": 36.0, "unit": "%"}, {"measurement": "Ascites elimination", "setting": "[1]; during the monotherapy of 3 months, 29 analyzable cases", "result": "ascites was not eliminated"}, {"measurement": "Efficacy in symptom palliation", "setting": "pancreatic cancer", "result": 23.8, "unit": "%"}, {"measurement": "Median survival time", "setting": "pancreatic cancer", "result": 5.7, "unit": "months"}, {"measurement": "One-year survival rate", "setting": "pancreatic cancer", "result": 18, "unit": "%"}]}]}
